# Legend:
# Assay type in all cases: cell-based
# E. coli DH5α = test: Antibacterial activity: MIC and growth curve against E. coli DH5α in 96-well plate; settings: minimal inhibitory concentration against E. coli DH5α; 96-well plate, 5×10^5 CFU/mL, 37° C., judged after 8 h
# In short: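 Log-phase bacteria (OD600 ~0.5) resuspended in LB at 5×10^5 CFU/mL, exposed to recombinant protein at 50, 25, 12.5 μg/mL final in triplicate, 37 °C shaking at 175 rpm. OD600 read every 30 min; MIC is lowest concentration showing no growth.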
# E. coli BL21 = test: MIC against Gram-negative bacteria: E. coli BL21
# In short: (§1)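 Two-fold serial dilutions of each purified human EGF domain protein, three replicate wells per level, were combined with bacteria at a final 5×10^5 CFU/mL in LB. Cultures were shaken at 175 rpm, 37° C. The MIC was taken as the minimum concentration preventing growth.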
# Pseudomonas aeruginosa = test: MIC against Gram-negative bacteria: Pseudomonas aeruginosa
# In short: as §1
# Klebsiella pneumonia = test: MIC against Gram-negative bacteria: Klebsiella pneumonia
# In short: as §1
# Enterobacter cloacae = test: MIC against Gram-negative bacteria: Enterobacter cloacae
# In short: as §1
# Aeromonas hydrophila = test: MIC against Gram-negative bacteria: Aeromonas hydrophila
# In short: as §1
# Citrobacter diversus = test: MIC against Gram-negative bacteria: Citrobacter diversus
# In short: as §1
# Moraxella catarrhalis = test: MIC against Gram-negative bacteria: Moraxella catarrhalis
# In short: as §1
# Proteus mirabilis = test: MIC against Gram-negative bacteria: Proteus mirabilis
# In short: as §1
# Proteus vulgaris = test: MIC against Gram-negative bacteria: Proteus vulgaris
# In short: as §1
# Serratia marcescens = test: MIC against Gram-negative bacteria: Serratia marcescens
# In short: as §1
# [1] = E. coli BL21, 10 h cultivation at 37° C., 5×10^5 CFU/mL
# [2] = P. aeruginosa, 10 h cultivation at 37° C., 5×10^5 CFU/mL
# [3] = K. pneumonia, 10 h cultivation at 37° C., 5×10^5 CFU/mL
# [4] = E. cloacae, 10 h cultivation at 37° C., 5×10^5 CFU/mL
# [5] = A. hydrophila, 10 h cultivation at 37° C., 5×10^5 CFU/mL
# [6] = C. diversus, 10 h cultivation at 37° C., 5×10^5 CFU/mL
# [7] = M. catarrhalis, 10 h cultivation at 37° C., 5×10^5 CFU/mL
# [8] = P. mirabilis, 10 h cultivation at 37° C., 5×10^5 CFU/mL
# [9] = P. vulgaris, 10 h cultivation at 37° C., 5×10^5 CFU/mL
# [10] = S. marcescens, 10 h cultivation at 37° C., 5×10^5 CFU/mL
# [11] = E. coli BL21, 96-well plate, 5×10^5 CFU/mL, 37° C., 10 h
# [12] = Pseudomonas aeruginosa, 96-well plate, 5×10^5 CFU/mL, 37° C., 10 h
# [13] = Klebsiella pneumonia, 96-well plate, 5×10^5 CFU/mL, 37° C., 10 h
# [14] = Enterobacter cloacae, 96-well plate, 5×10^5 CFU/mL, 37° C., 10 h
# [15] = Aeromonas hydrophila, 96-well plate, 5×10^5 CFU/mL, 37° C., 10 h
# [16] = Citrobacter diversus, 96-well plate, 5×10^5 CFU/mL, 37° C., 10 h
# [17] = Moraxella catarrhalis, 96-well plate, 5×10^5 CFU/mL, 37° C., 10 h
# [18] = Proteus mirabilis, 96-well plate, 5×10^5 CFU/mL, 37° C., 10 h
# [19] = Proteus vulgaris, 96-well plate, 5×10^5 CFU/mL, 37° C., 10 h
# [20] = Serratia marcescens, 96-well plate, 5×10^5 CFU/mL, 37° C., 10 h
# [21] = 96-well plate, 5×10^5 CFU/mL, 37° C., 10 h
substance,measurement,setting,value
PRT788 (WGPHCTSRCQCKNGALCNPITGACHCAAGFRGWRCE; listed as Homo sapiens),MIC,E. coli DH5α,50 µg/mL
same,MIC (μg/mL) E. coli BL21,E. coli BL21; [1],100 µg/mL
same,MIC (μg/mL) P. aeruginosa,Pseudomonas aeruginosa; [2],50 µg/mL
same,MIC (μg/mL) K. pneumonia,Klebsiella pneumonia; [3],25 µg/mL
same,MIC (μg/mL) E. cloacae,Enterobacter cloacae; [4],12.5 µg/mL
same,MIC (μg/mL) A. hydrophila,Aeromonas hydrophila; [5],25 µg/mL
same,MIC (μg/mL) C. diversus,Citrobacter diversus; [6],50 µg/mL
same,MIC (μg/mL) M. catarrhalis,Moraxella catarrhalis; [7],25 µg/mL
same,MIC (μg/mL) P. mirabilis,Proteus mirabilis; [8],12.5 µg/mL
same,MIC (μg/mL) P. vulgaris,Proteus vulgaris; [9],50 µg/mL
same,MIC (μg/mL) S. marcescens,Serratia marcescens; [10],50 µg/mL
PRT1250 (FGARCDRYCQCFRGRCHPVDGTCACEPGYRGKYCR; listed as Homo sapiens),MIC,E. coli DH5α,12.5 µg/mL
same,MIC against E. coli BL21,E. coli BL21; [11],50 µg/mL
same,MIC against P. aeruginosa,Pseudomonas aeruginosa; [12],12.5 µg/mL
same,MIC against K. pneumonia,Klebsiella pneumonia; [13],25 µg/mL
same,MIC against E. cloacae,Enterobacter cloacae; [14],50 µg/mL
same,MIC against A. hydrophila,Aeromonas hydrophila; [15],12.5 µg/mL
same,MIC against C. diversus,Citrobacter diversus; [16],50 µg/mL
same,MIC against M. catarrhalis,Moraxella catarrhalis; [17],12.5 µg/mL
same,MIC against P. mirabilis,Proteus mirabilis; [18],25 µg/mL
same,MIC against P. vulgaris,Proteus vulgaris; [19],50 µg/mL
same,MIC against S. marcescens,Serratia marcescens; [20],25 µg/mL
PRT69 (RRNFCDGRRCQNGGTCVNRWNMYLCECPLRFGGKNCE; listed as Homo sapiens),MIC,E. coli DH5α,12.5 µg/mL
same,MIC (μg/mL) E. coli BL21,E. coli BL21; [11],12.5 µg/mL
same,MIC (μg/mL) P. aeruginosa,Pseudomonas aeruginosa; [12],25 µg/mL
same,MIC (μg/mL) K. pneumonia,Klebsiella pneumonia; [13],12.5 µg/mL
same,MIC (μg/mL) E. cloacae,Enterobacter cloacae; [14],25 µg/mL
same,MIC (μg/mL) A. hydrophila,Aeromonas hydrophila; [15],12.5 µg/mL
same,MIC (μg/mL) C. diversus,Citrobacter diversus; [16],25 µg/mL
same,MIC (μg/mL) M. catarrhalis,Moraxella catarrhalis; [17],12.5 µg/mL
same,MIC (μg/mL) P. mirabilis,Proteus mirabilis; [18],12.5 µg/mL
same,MIC (μg/mL) P. vulgaris,Proteus vulgaris; [19],12.5 µg/mL
same,MIC (μg/mL) S. marcescens,Serratia marcescens; [20],12.5 µg/mL
PRT998 (VPLCAPNLCQPKQICKDQKDKANCLCPDGSPGCA; listed as Homo sapiens),MIC,E. coli DH5α,12.5 µg/mL
same,MIC,"E. coli BL21; E. coli BL21, 10 h cultivation at 37° C.",50 µg/mL
same,MIC,"Pseudomonas aeruginosa; P. aeruginosa, 10 h cultivation at 37° C.",12.5 µg/mL
same,MIC,"Klebsiella pneumonia; K. pneumonia, 10 h cultivation at 37° C.",50 µg/mL
same,MIC,"Enterobacter cloacae; E. cloacae, 10 h cultivation at 37° C.",12.5 µg/mL
same,MIC,"Aeromonas hydrophila; A. hydrophila, 10 h cultivation at 37° C.",50 µg/mL
same,MIC,"Citrobacter diversus; C. diversus, 10 h cultivation at 37° C.",25 µg/mL
same,MIC,"Moraxella catarrhalis; M. catarrhalis, 10 h cultivation at 37° C.",12.5 µg/mL
same,MIC,"Proteus mirabilis; P. mirabilis, 10 h cultivation at 37° C.",25 µg/mL
same,MIC,"Proteus vulgaris; P. vulgaris, 10 h cultivation at 37° C.",50 µg/mL
same,MIC,"Serratia marcescens; S. marcescens, 10 h cultivation at 37° C.",25 µg/mL
PRT752 (TAHMCSTLEHNCAHFCINIPGSYVCRCKQGYILNSDQTTCR; listed as Homo sapiens),MIC,E. coli DH5α,50 µg/mL
same,MIC (μg/mL) E. coli BL21,E. coli BL21; [1],25 µg/mL
same,MIC (μg/mL) P. aeruginosa,Pseudomonas aeruginosa; [2],12.5 µg/mL
same,MIC (μg/mL) K. pneumonia,Klebsiella pneumonia; [3],12.5 µg/mL
same,MIC (μg/mL) E. cloacae,Enterobacter cloacae; [4],12.5 µg/mL
same,MIC (μg/mL) A. hydrophila,Aeromonas hydrophila; [5],50 µg/mL
same,MIC (μg/mL) C. diversus,Citrobacter diversus; [6],12.5 µg/mL
same,MIC (μg/mL) M. catarrhalis,Moraxella catarrhalis; [7],25 µg/mL
same,MIC (μg/mL) P. mirabilis,Proteus mirabilis; [8],50 µg/mL
same,MIC (μg/mL) P. vulgaris,Proteus vulgaris; [9],25 µg/mL
same,MIC (μg/mL) S. marcescens,Serratia marcescens; [10],12.5 µg/mL
PRT619 (CNCQGGGACDPDTGDCYSGDENPDIECADCPIGFYNDPHDPRSCKP; listed as Homo sapiens),MIC,E. coli DH5α,12.5 µg/mL
same,MIC E. coli BL21,E. coli BL21; [21],25 µg/mL
same,MIC P. aeruginosa,Pseudomonas aeruginosa; [21],50 µg/mL
same,MIC K. pneumonia,Klebsiella pneumonia; [21],25 µg/mL
same,MIC E. cloacae,Enterobacter cloacae; [21],12.5 µg/mL
same,MIC A. hydrophila,Aeromonas hydrophila; [21],25 µg/mL
same,MIC C. diversus,Citrobacter diversus; [21],50 µg/mL
same,MIC M. catarrhalis,Moraxella catarrhalis; [21],25 µg/mL
same,MIC P. mirabilis,Proteus mirabilis; [21],12.5 µg/mL
same,MIC P. vulgaris,Proteus vulgaris; [21],25 µg/mL
same,MIC S. marcescens,Serratia marcescens; [21],50 µg/mL
PRT832 (DVDECAAGLAQCAHGCLNTQGSFKCVCHAGYELGADGRQCY; listed as Homo sapiens),MIC,E. coli DH5α,50 µg/mL
same,MIC (μg/mL) E. coli BL21,E. coli BL21; [1],12.5 µg/mL
same,MIC (μg/mL) P. aeruginosa,Pseudomonas aeruginosa; [2],12.5 µg/mL
same,MIC (μg/mL) K. pneumonia,Klebsiella pneumonia; [3],12.5 µg/mL
same,MIC (μg/mL) E. cloacae,Enterobacter cloacae; [4],25 µg/mL
same,MIC (μg/mL) A. hydrophila,Aeromonas hydrophila; [5],12.5 µg/mL
same,MIC (μg/mL) C. diversus,Citrobacter diversus; [6],25 µg/mL
same,MIC (μg/mL) M. catarrhalis,Moraxella catarrhalis; [7],12.5 µg/mL
same,MIC (μg/mL) P. mirabilis,Proteus mirabilis; [8],12.5 µg/mL
same,MIC (μg/mL) P. vulgaris,Proteus vulgaris; [9],25 µg/mL
same,MIC (μg/mL) S. marcescens,Serratia marcescens; [10],12.5 µg/mL

# Reference: patent publication US9833497B2, “Human originated EGF domain proteins and use of the same” (CHENGDU SOURCEBIO LIMITED-LIABILITY COMPANY, priority 2013, dated 2017)
